Numbers after ± are expanded uncertainties.
Tests used:
[1] = molar heat capacity at constant pressure; conditions: Liquid, Flow calorimetry
[2] = Liquid; for mass density: Vibrating tube method; for viscosity: 101 kPa, Concentric cylinders viscometry

C1CCCCC1 [cyclohexane]
Conditions	mass density, [2] [kg/m3]	molar heat capacity at constant pressure, [1] [J/K/mol]
293.15 K, 100 kPa	778.4 ± 0.7	154.7 ± 1.6
293.15 K, 1000 kPa	779.1 ± 0.7	–
293.15 K, 2000 kPa	779.9 ± 0.7	–
293.15 K, 5000 kPa	782.4 ± 0.7	153.8 ± 1.6
293.15 K, 10000 kPa	786.3 ± 0.7	152.5 ± 1.5
293.15 K, 15000 kPa	789.9 ± 0.7	150.5 ± 1.5
293.15 K, 20000 kPa	793.4 ± 0.7	149.7 ± 1.5
293.15 K, 25000 kPa	–	147.7 ± 1.5
303.15 K, 100 kPa	769 ± 0.7	–
303.15 K, 1000 kPa	769.8 ± 0.7	–
303.15 K, 2000 kPa	770.7 ± 0.7	–
303.15 K, 5000 kPa	773.3 ± 0.7	–
303.15 K, 10000 kPa	777.5 ± 0.7	–
303.15 K, 15000 kPa	781.3 ± 0.7	–
303.15 K, 20000 kPa	785.1 ± 0.8	–
303.15 K, 30000 kPa	792.1 ± 0.8	–
303.15 K, 40000 kPa	798.5 ± 0.8	–
313.15 K, 100 kPa	759.7 ± 0.7	–
313.15 K, 1000 kPa	760.3 ± 0.7	–
313.15 K, 2000 kPa	761.2 ± 0.7	–
313.15 K, 5000 kPa	764 ± 0.7	–
313.15 K, 10000 kPa	768.4 ± 0.7	–
313.15 K, 15000 kPa	772.6 ± 0.7	–
313.15 K, 20000 kPa	776.6 ± 0.8	–
313.15 K, 25000 kPa	–	154.6 ± 1.6
313.15 K, 30000 kPa	784.1 ± 0.8	–
313.15 K, 40000 kPa	790.9 ± 0.8	–
323.15 K, 100 kPa	750.1 ± 0.7	–
323.15 K, 1000 kPa	750.8 ± 0.7	–
323.15 K, 2000 kPa	751.8 ± 0.7	–
323.15 K, 5000 kPa	754.8 ± 0.7	–
323.15 K, 10000 kPa	759.5 ± 0.7	–
323.15 K, 15000 kPa	763.9 ± 0.7	–
323.15 K, 20000 kPa	768.2 ± 0.8	–
323.15 K, 30000 kPa	776.1 ± 0.8	–
323.15 K, 40000 kPa	783.2 ± 0.8	–
333.15 K, 100 kPa	740.3 ± 0.7	–
333.15 K, 1000 kPa	741.1 ± 0.7	–
333.15 K, 2000 kPa	742.2 ± 0.7	–
333.15 K, 5000 kPa	745.5 ± 0.7	–
333.15 K, 10000 kPa	750.5 ± 0.7	–
333.15 K, 15000 kPa	755.3 ± 0.7	–
333.15 K, 20000 kPa	759.7 ± 0.8	–
333.15 K, 30000 kPa	768.1 ± 0.8	–
333.15 K, 40000 kPa	775.6 ± 0.8	–

[2]
Conditions	viscosity [mPa·s]
293.15 K	0.98 ± 0.021
303.15 K	0.824 ± 0.018
313.15 K	0.701 ± 0.015
323.15 K	0.593 ± 0.013
333.15 K	0.522 ± 0.012

— the NIST ThermoML archive (doi:10.1016/j.jct.2014.01.020)
